Like-named read-outs stand apart in the source and are kept apart here.
Biological target: T1, C5a receptor (Homo sapiens, UniProt P21730)
T1 construct: endogenous in cells; host or cells: U937 cells differentiated with 1 mM dibutyryl cAMP
T1 sequence (P21730 1-350): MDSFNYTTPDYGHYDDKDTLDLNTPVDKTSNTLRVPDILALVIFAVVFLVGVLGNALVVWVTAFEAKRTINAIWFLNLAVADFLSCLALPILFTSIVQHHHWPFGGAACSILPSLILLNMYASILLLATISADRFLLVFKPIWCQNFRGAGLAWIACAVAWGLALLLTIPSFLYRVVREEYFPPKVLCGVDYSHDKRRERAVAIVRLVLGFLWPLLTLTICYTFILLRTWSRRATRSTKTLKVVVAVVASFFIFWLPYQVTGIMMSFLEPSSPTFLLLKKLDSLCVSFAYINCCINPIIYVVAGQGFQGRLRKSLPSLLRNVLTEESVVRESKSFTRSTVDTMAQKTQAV
Experiment: standard assay of C5a receptor mediated calcium mobilization
Type: cell-based
Details: asterisk = tested in C5a receptor mediated calcium mobilization assay, read-out: Ca2+ Mob.
In short: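 U937 cells differentiated 48 hrs with 1 mM dibutyryl cAMP, loaded with Fluo-3 (10 μg/mL) and read by FLIPR fluorescence (ex 480/em 530). For antagonism, cells preincubated 1 h with 1 μM compound before 0.3 nM human recombinant C5a; activity scored as fold decrease in response versus C5a alone.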

SMILES | Ki (Table I) | Ki (Table III)
Cc1cccc(-c2ccccc2)c1C(=O)N(Cc1ccc(F)c(F)c1)C1Cc2ccccc2C1 [compound 126, N-(3,4-difluorobenzyl)-N-(indan-2-yl)-3-methyl-1,1′-biphenyl-2-carboxamide] | < 1000 nM | 
COc1cccc(CN(C(=O)c2c(C)cccc2-c2ccccc2)C2Cc3ccccc3C2)c1 [compound 127, N-(indan-2-yl)-N-(3-methoxybenzyl)-3-methyl-1,1′-biphenyl-2-carboxamide] | < 1000 nM | 
COc1ccc(CN(C(=O)c2c(C)cccc2-c2ccccc2)C2Cc3ccccc3C2)cc1 [compound 128, N-(indan-2-yl)-N-(4-methoxybenzyl)-3-methyl-1,1′-biphenyl-2-carboxamide] | < 1000 nM | 
Cc1cccc(-c2ccccc2)c1C(=O)N(Cc1ccc2c(c1)OCO2)C1Cc2ccccc2C1 [compound 129, N-(1,3-benzodioxol-5-ylmethyl)-N-(indan-2-yl)-3-methyl-1,1′-biphenyl-2-carboxamide] | < 1000 nM | 
Cc1cccc(-c2ccccc2)c1C(=O)N(CCc1ccccc1)C1Cc2ccccc2C1 [compound 130, N-(indan-2-yl)-3-methyl-N-(2-phenylethyl)-1,1′-biphenyl-2-carboxamide] | < 1000 nM | 
Cc1ccccc1CN(C(=O)c1cc(Cl)ccc1-c1ccccc1)C1Cc2ccccc2C1 [compound 131, 4-chloro-N-(indan-2-yl)-N-(2-methylbenzyl)-1,1′-biphenyl-2-carboxamide] | < 1000 nM | 
Cc1cccc(CN(C(=O)c2cc(Cl)ccc2-c2ccccc2)C2Cc3ccccc3C2)c1 [compound 132, 4-chloro-N-(indan-2-yl)-N-(3-methylbenzyl)-1,1′-biphenyl-2-carboxamide] | < 1000 nM | 
O=C(c1cc(Cl)ccc1-c1ccccc1)N(Cc1ccccc1F)C1Cc2ccccc2C1 [compound 134, 4-chloro-N-(indan-2-yl)-N-(2-fluorobenzyl)-1,1′-biphenyl-2-carboxamide] | < 1000 nM | 
O=C(c1cc(Cl)ccc1-c1ccccc1)N(Cc1cccc(F)c1)C1Cc2ccccc2C1 [compound 135, 4-chloro-N-(indan-2-yl)-N-(3-fluorobenzyl)-1,1′-biphenyl-2-carboxamide] | < 1000 nM | 
O=C(c1cc(Cl)ccc1-c1ccccc1)N(Cc1ccc(F)cc1)C1Cc2ccccc2C1 [compound 136, 4-chloro-N-(indan-2-yl)-N-(4-fluorobenzyl)-1,1′-biphenyl-2-carboxamide] | < 1000 nM | 
O=C(c1cc(Cl)ccc1-c1ccccc1)N(Cc1ccc(F)c(F)c1)C1Cc2ccccc2C1 [compound 137, 4-chloro-N-(3,4-difluorobenzyl)-N-(indan-2-yl)-1,1′-biphenyl-2-carboxamide] | < 1000 nM | 
COc1ccc(CN(C(=O)c2cc(Cl)ccc2-c2ccccc2)C2Cc3ccccc3C2)cc1 [compound 138, 4-chloro-N-(indan-2-yl)-N-(4-methoxybenzyl)-1,1′-biphenyl-2-carboxamide] | < 1000 nM | 
O=C(c1cc(Cl)ccc1-c1ccccc1)N(Cc1ccc2c(c1)OCO2)C1Cc2ccccc2C1 [compound 139, N-(1,3-benzodioxol-5-ylmethyl)-4-chloro-N-(indan-2-yl)-1,1′-biphenyl-2-carboxamide] | < 1000 nM | 
COc1cccc(CN(C(=O)c2cc(Cl)ccc2-c2ccccc2)C2Cc3ccccc3C2)c1 [compound 140, 4-chloro-N-(indan-2-yl)-N-(3-methoxybenzyl)-1,1′-biphenyl-2-carboxamide] | < 1000 nM | 
O=C(c1cc(Cl)ccc1-c1ccccc1)N(CCc1ccccc1)C1Cc2ccccc2C1 [compound 141, 4-chloro-N-(indan-2-yl)-N-(2-phenylethyl)-1,1′-biphenyl-2-carboxamide] | < 1000 nM | 
Cc1cc(CN(Cc2ccccc2)C(=O)c2cc(Cl)ccc2-c2ccccc2)cc(C)c1O [compound 142, N-benzyl-4-chloro-N-(4-hydroxy-3,5-dimethylbenzyl)-1,1′-biphenyl-2-carboxamide] | < 1000 nM | 
O=C(c1cc(Cl)ccc1-c1ccccc1)N(Cc1ccccc1)Cc1ccc2c(c1)OCC2 [compound 144, N-benzyl-4-chloro-N-(2,3-dihydro-1-benzofuran-6-ylmethyl)-1,1′-biphenyl-2-carboxamide] | < 1000 nM | 
COc1cccc(CN(CCc2ccccc2)C(=O)c2cc(Cl)ccc2-c2ccccc2)c1 [compound 145, 4-chloro-N-(3-methoxybenzyl)-N-(2-phenylethyl)-1,1′-biphenyl-2-carboxamide] | < 1000 nM | 

Next, values leading:

Ki (Table I) | Ki (Table III) | SMILES
< 1000 nM |  | O=C(c1cc(Cl)ccc1-c1ccccc1)N(Cc1ccccc1)Cc1cccc2ccccc12 [compound 146, N-benzyl-4-chloro-N-(1-naphthylmethyl)-1,1′-biphenyl-2-carboxamide]
< 1000 nM |  | Cc1ccc(-c2ccccc2C(=O)N(Cc2ccccc2)Cc2cc(C)c(O)c(C)c2)s1 [compound 147, N-benzyl-N-(4-hydroxy-3,5-dimethylbenzyl)-2-(5-methylthien-2-yl)benzamide]
< 1000 nM |  | Cc1ccc(-c2ccccc2C(=O)N(Cc2ccccc2)Cc2ccc(OC(F)F)cc2)s1 [compound 148, N-benzyl-N-[4-(difluoromethoxy)benzyl]-2-(5-methylthien-2-yl)benzamide]
< 1000 nM |  | Cc1ccc(-c2ccccc2C(=O)N(Cc2ccccc2)Cc2ccc(O)cc2Cl)s1 [compound 149, N-benzyl-N-(2-chloro-4-hydroxybenzyl)-2-(5-methylthien-2-yl)benzamide]
< 1000 nM |  | Cc1cc(CN(Cc2ccccc2)C(=O)c2ccccc2-c2ccccc2)cc(C)c1O [compound 150, N-benzyl-N-(4-hydroxy-3,5-dimethylbenzyl)-1,1′-biphenyl-2-carboxamide]
< 1000 nM |  | O=C(c1ccccc1-c1ccccc1)N(Cc1ccccc1)Cc1ccc(OC(F)F)cc1 [compound 151, N-benzyl-N-[4-(difluoromethoxy)benzyl]-1,1′-biphenyl-2-carboxamide]
 | < 1000 nM | COc1ccc2ccccc2c1C(=O)N(Cc1ccccc1)Cc1cc(C)c(O)c(C)c1 [compound 217, N-benzyl-N-(4-hydroxy-3,5-dimethylbenzyl)-2-methoxy-1-naphthamide]
 | < 1000 nM | COc1ccc2ccccc2c1C(=O)N(CCc1ccccc1)C1Cc2ccccc2C1 [compound 220, 2-Methoxy-naphthalene-1-carboxylic acid indan-2-yl-phenethyl-amide]
 | < 1000 nM | COc1ccc2ccccc2c1C(=O)N(Cc1ccc(C)cc1)C1Cc2ccccc2C1 [compound 223, 2-Methoxy-naphtlalene-1-carboxylic acid (4-methyl-benzyl)-indan-2-yl-amide]
 | < 1000 nM | COc1ccc2ccccc2c1C(=O)N(Cc1ccccc1C)C1Cc2ccccc2C1 [compound 224, 2-Methoxy-naphthalene-1-carboxylic acid (2-methyl-benzyl)-indan-2-yl-amide]
 | < 1000 nM | COc1ccc2ccccc2c1C(=O)N(Cc1ccc2c(c1)OCO2)C1Cc2ccccc2C1 [compound 228, 2-Methoxy-naphthalene-1-carboxylic acidbenzo[1,3]dioxol-5-ylmethyl-indan-2-yl-amide]
 | < 1000 nM | Cc1cccc(CN(C(=O)c2c(C)ccc3ccccc23)C2Cc3ccccc3C2)c1 [compound 230, 2-Methyl-naphthalene-1-carboxylic acid (3-methyl-benzyl)-indan-2-yl-amide]
 | < 1000 nM | Cc1ccc2ccccc2c1C(=O)N(CCc1ccccc1)C1Cc2ccccc2C1 [compound 235, 2-Methyl-naphthalene-1-carboxylic acid indan-2-yl-phenethyl-amide]
 | < 1000 nM | O=C(c1c(O)ccc2ccccc12)N(Cc1ccccc1F)C1Cc2ccccc2C1 [compound 237, 2-Hydroxy-naphthalene-1-carboxylic acid (2-fluoro-benzyl)-indan-2-yl-amide]
 | < 1000 nM | Cc1ccc(CN(C(=O)c2c(O)ccc3ccccc23)C2Cc3ccccc3C2)cc1 [compound 238, 2-Hydroxy-naphthalene-1-carboxylic acid (4-methyl-benzyl)-indan-2-yl-amide]
 | < 1000 nM | O=C(c1c(-c2ccccc2)ccc2ccccc12)N(Cc1ccccc1F)C1Cc2ccccc2C1 [compound 239, 2-Phenyl-naphthalene-1-carboxylic acid (2-fluoro-benzyl)-indan-2-yl-amide]
 | < 1000 nM | Cc1ccc(CN(C(=O)c2c(-c3ccccc3)ccc3ccccc23)C2Cc3ccccc3C2)cc1 [compound 240, 2-Phenyl-naphthalene 1-carboxylic acid (4-methyl-benzyl)-indan-2-yl-amide]

Source: patent publication US7291621B2, “Substituted biaryl amides C5a receptor modulators” (Neurogen Corporation, priority 2002, dated 2007)
